Laboratory results as given in patent publication US20220332839A1, “USE OF PRG4 TO TREAT CANCER” (Lubris LLC, priority 2019, published 2022).
Entries after “also recorded” stand apart in the source; their conditions may differ.

What was measured:
lubricin (PRG4) mRNA = test: PRG4 mRNA expression in CAFs and ex vivo HCC specimens; type: cell-based, human; details: 48 hours; CAFs (p<0.01) and HCC samples (p<0.05)
Description: RNA extraction and cDNA synthesis: […] of frozen ex-vivo treated HCC tissues were ground with a mortar-pestle in the presence of liquid nitrogen until a thin powder was obtained. The ground tissues were lysed with 0.5-1 ml of RLT buffer+1% (BME) and then processed according to the manufacturer's recommendations (RNeasy kit, Qiagen). […] The obtained RNA was assayed for quality and concentration using the NanoDrop 2000/2000c (Thermo Fisher Scientific). cDNA was synthetized using the High Capacity cDNA reverse transcription kit (Thermo Fisher Scientific), according to relative datasheet.
Real time PCR: One ng/μl of cDNA was used in total 20 μl reaction mix in the presence of 500 nM of each forward and reverse primer referred to a specific gene of interest, and 2×SYBR green master mix (Bio-Rad). The reaction was conducted in a CFX96 Touch Real-Time Detection System (Bio-Rad).
CAFs isolation: Immediately after surgical resection, HCC tumoral and peritumoral specimens were minced into 0.5-1 cm pieces and left in MACS Tissue Storage Solution (Miltenyi Biotec). The tissues were then further cut into smaller size pieces (1-2 mm), washed three times in Hanks balanced salt solution (HBSS), and then incubated in HBSS in the presence of type IV collagenase (Thermo Fisher Scientific) and 3 mM CaCl2 at 37° C. under gentle rotation for 4 hours. At the end of this step, the dissociation was mechanically facilitated by pipetting up-down the digested tissues with a large size orifice 50 ml pipette. The floating cells were collected and washed three times with HBSS and seeded in normal culture conditions in IMDM+20% FBS. The decanted, partially digested tissue specimens were subjected to a second round of digestion (as previously described). The resulting dissociated cells were washed with HBSS and cultured in IMDM+20% FBS. […] The presence of minimal contaminating non-fibroblastic cells (mostly cancerous hepatocytes, cholangiocytes and macrophages) was evaluated using antibodies to EpCAM, CD45, and CD11b.

Smad2 = test: phospho-Smad2 immunoblotting; type: cell-based, human; details: 100 pM TGFβ; 100 μg/mL rhPRG4; 12 h
Description: Cells were washed with PBS to remove all growth media. Appropriate volume of TNTE lysis buffer (50 mM Tris, 150 mM NaCl, 1 mM EDTA, 0.5% [v/v] Triton-X-100) containing protease and phosphatase inhibitors, was added to the cell monolayer and incubated at 4° C. under vigorous shaking for 20 minutes. Lysates were then collected in microcentrifuge tubes and centrifuged at 13,000 g for 10 minutes at 4° C. 5 μL of the lysate were subjected to protein concentration determination using Bradford-based protein assays (Bio-Rad Laboratories, Canada). Lysates were boiled for 3 minutes at 95° C. in dithiothreitol (DTT)-containing Laemmli sample buffer. For immunoprecipitation analyses, lysates were incubated with appropriate antibodies at 4° C. with gentle rocking for 3 h after which immunocomplexes were incubated with Protein G-conjugated agarose beads (UBPBio, USA) at 4° C. with gentle rocking for 3 h. Finally, the beads were washed with TNTE wash buffer (0.1% [v/v] Triton-X-100) and boiled for 5 minutes at 95° C. in dithiothreitol (DTT) containing Laemmli sample buffer. Immunoprecipitates and input lysates were then resolved by sodium dodecyl sulfate-polyacrylamide electrophoresis (SDS-PAGE) and transferred onto a nitrocellulose membrane (Bio-Rad Laboratories, Canada). […] Densitometric analyses were performed using Quantity One software (Bio-Rad Laboratories, Canada).

PLC/PRF/5 = test: 72-hour proliferation assay, PLC/PRF/5; type: cell-based, human; details: drug 2.5 μM
Description: Proliferation assay: In 100 μl complete medium, 3,000 cells were seeded in wells of a 96-well plate and left overnight to allow complete attachment. The next day (at time t=0 hours), the medium was removed and replaced with 100 μl of fresh medium in the presence/absence of Sorafenib (2.5 μM), Regorafenib (2.5 μM), rhPRG4 (12.5 to 100 μg/ml). Dimethyl sulfoxide (DMSO) and PBS+0.01% Tween-20 were used as vehicles of Sorafenib/Regorafenib, and rhPRG4, respectively. Cells in triplicate wells for each cell line were fixed at t=0 hours with 4% paraformaldehyde (PFA, pH 7.6, 10 min incubation), then stained with crystal violet (CV) and thoroughly washed to remove the excess staining. After 72 hours, the cells were fixed by adding 100 μl of 4% PFA directly to the medium (2% final PFA concentration, 20 min incubation), and processed for CV staining as previously described. Then, 100 or 200 μl of 1% sodium dodecyl-sulphate were added to the wells and the plates were left under shaking until complete CV release from stained cells. Optical density was at 595 nm wavelength measured using a plate reader.

[1] = tested on: non-metastatic triple negative breast cancer; test: Treatment of a human with triple negative breast cancer, local injection; type: in vivo
Description: (§1) A human diagnosed with non-metastatic triple negative breast cancer is administered recombinant human PRG4 (rhPRG4) by local injection to the area of the tumor. Administration is done under local anesthesia. A total amount of 2 mL of rhPRG4 in physiological saline at a concentration of 100 ug/mL is administered via a 14 gauge needle. Several injections are made into the tumor and over its surface in order to disperse the dose throughout the tumor area. The dose is administered once weekly for four weeks.
as §1, with “weeks. During the dosing rhPRG4 schedule, the patient also receives a cocktail of taxane and doxorubicin per standard protocols.” for “weeks.”

TGFβ: recombinant human mature transforming growth factor beta (R&D systems) [reference compound]
expression of lubricin mRNA (lubricin (PRG4) mRNA): significantly enhanced the expression of lubricin

rhPRG4: full-length recombinant human PRG4 (lubricin) glycoprotein produced by CHO-M cells; residues 25-1404 of SEQ ID NO:1
TGFβ-induced phosphorylation of Smad2 (Smad2): did not appreciably alter TGFβ-induced phosphorylation of Smad2; also recorded: did not reduce TGFβ-induced Smad2 phosphorylation | rhPRG4-drug synergistic effect (PLC/PRF/5): did not respond at all | tumor size by CT scan after four weeks ([1]; 2 mL of 100 ug/mL rhPRG4, local injection, once weekly for four weeks): tumor has shrunk in size | tumor size by CT scan after four weeks, with taxane and doxorubicin ([1]; 2 mL of 100 ug/mL rhPRG4 locally weekly plus taxane and doxorubicin): shrunk in size and at a rate faster
